# Measurements reported in patent US20210317134A1, “UBIQUITIN-SPECIFIC-PROCESSING PROTEASE 7 (USP7) MODULATORS AND USES THEREOF” (RAPT THERAPEUTICS, INC., priority 2019, published 2021).
# pIC50: −log10 of the molar value.
# Molecular target: USP7 (Homo sapiens, UniProt Q93009)
# Assay: USP7 inhibitory potency (Table 1)
# Format: biochemical
# USP7, sequence (Q93009 whole entry): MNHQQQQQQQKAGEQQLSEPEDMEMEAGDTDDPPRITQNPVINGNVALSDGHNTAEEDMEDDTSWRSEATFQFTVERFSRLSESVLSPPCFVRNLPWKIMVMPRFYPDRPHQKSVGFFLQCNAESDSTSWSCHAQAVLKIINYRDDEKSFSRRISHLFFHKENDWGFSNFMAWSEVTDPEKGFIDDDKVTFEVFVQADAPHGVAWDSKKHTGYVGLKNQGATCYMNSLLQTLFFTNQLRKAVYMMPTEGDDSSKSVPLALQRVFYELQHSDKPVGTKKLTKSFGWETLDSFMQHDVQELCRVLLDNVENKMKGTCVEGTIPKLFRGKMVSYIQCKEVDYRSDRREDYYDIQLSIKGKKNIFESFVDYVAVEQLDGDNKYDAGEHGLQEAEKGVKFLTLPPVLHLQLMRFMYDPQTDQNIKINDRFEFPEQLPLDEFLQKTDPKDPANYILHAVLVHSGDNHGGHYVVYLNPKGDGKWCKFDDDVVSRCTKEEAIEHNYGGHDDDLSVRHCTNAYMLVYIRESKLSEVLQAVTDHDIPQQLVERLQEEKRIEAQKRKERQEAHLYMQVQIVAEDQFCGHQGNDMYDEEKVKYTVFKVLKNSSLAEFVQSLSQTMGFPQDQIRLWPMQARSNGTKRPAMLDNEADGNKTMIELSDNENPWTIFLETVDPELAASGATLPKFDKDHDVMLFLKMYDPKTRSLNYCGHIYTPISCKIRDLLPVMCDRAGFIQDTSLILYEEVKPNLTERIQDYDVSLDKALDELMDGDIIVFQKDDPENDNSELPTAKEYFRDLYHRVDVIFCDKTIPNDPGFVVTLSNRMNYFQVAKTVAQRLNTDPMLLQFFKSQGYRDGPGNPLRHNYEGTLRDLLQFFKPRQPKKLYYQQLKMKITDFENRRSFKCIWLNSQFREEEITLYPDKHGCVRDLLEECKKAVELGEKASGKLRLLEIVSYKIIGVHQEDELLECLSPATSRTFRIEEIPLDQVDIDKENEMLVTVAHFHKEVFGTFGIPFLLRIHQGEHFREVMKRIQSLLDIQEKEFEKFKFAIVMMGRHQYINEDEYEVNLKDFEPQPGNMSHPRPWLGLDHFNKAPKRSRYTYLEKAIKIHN
row,SMILES,pIC50
1,"COc1ccc2nccc(-c3cc(Cl)cc4c3OC(C(=O)N3CCNCC3)C4)c2c1 (stereo not shown) [(5-chloro-7-(6-methoxyquinolin-4-yl)-2,3-dihydrobenzofuran-2-yl)(piperazin-1-yl)methanone]",4.52 to 5.00
2,"COc1ccc2nccc(-c3cc(Cl)cc4c3O[C@@H](c3onc5c3CNCC5)C4)c2c1 [(R)-3-(5-chloro-7-(6-methoxyquinolin-4-yl)-2,3-dihydrobenzofuran-2-yl)-4,5,6,7-tetrahydroisoxazolo[4,3-c]pyridine]",4.52 to 5.00
3,"NC(=O)c1ccc2c(-c3cc(Cl)cc4c3O[C@@H](c3onc5c3CNCC5)C4)ccnc2c1 [(R)-4-(5-chloro-2-(4,5,6,7-tetrahydroisoxazolo[4,3-c]pyridin-3-yl)-2,3-dihydrobenzofuran-7-yl)quinoline-7-carboxamide]",5.00 to 6.00
4,"OCC1(CO)Cc2nccc(-c3cc(Cl)cc4c3O[C@@H](c3onc5c3CNCC5)C4)c2C1 [(R)-(4-(5-chloro-2-(4,5,6,7-tetrahydroisoxazolo[4,3-c]pyridin-3-yl)-2,3-dihydrobenzofuran-7-yl)-6,7-dihydro-5H-cyclopenta[b]pyridine-6,6-diyl)dimethanol]",5.00 to 6.00
5,"O=C(C1Cc2cc(Cl)cc(-c3ccnc4[nH]ccc34)c2O1)N1CCC(O)(c2ccccc2F)CC1 (stereo not shown) [(5-chloro-7-(1H-pyrrolo[2,3-b]pyridin-4-yl)-2,3-dihydrobenzofuran-2-yl)(4-(2-fluorophenyl)-4-hydroxypiperidin-1-yl)methanone]",5.00 to 6.00
6,"O=C(C1Cc2cc(Cl)cc(-c3ccnc4[nH]c(Cc5cccnc5)cc34)c2O1)N1CCNCC1 (stereo not shown) [(5-chloro-7-(2-(pyridin-3-ylmethyl)-1H-pyrrolo[2,3-b]pyridin-4-yl)-2,3-dihydrobenzofuran-2-yl)(piperazin-1-yl)methanone]",5.00 to 6.00
7,"CC(=O)NC(C)(C)c1cc2nccc(-c3cc(Cl)cc4c3O[C@@H](C(=O)N3CCNCC3)C4)c2s1 [(R)-N-(2-(7-(5-chloro-2-(piperazine-1-carbonyl)-2,3-dihydrobenzofuran-7-yl)thieno[3,2-b]pyridin-2-yl)propan-2-yl)acetamide]",5.00 to 6.00
8,"O=C(C1Cc2cc(Cl)cc(-c3ccnc4[nH]ccc34)c2O1)N1CCCC(C2CNC2)C1 (stereo not shown) [(3-(azetidin-3-yl)piperidin-1-yl)(5-chloro-7-(1H-pyrrolo[2,3-b]pyridin-4-yl)-2,3-dihydrobenzofuran-2-yl)methanone]",4.52 to 5.00
9,"O=C1c2ccccc2C2(c3cc4ncnc(-c5cc(Cl)cc6c5O[C@@H](c5onc7c5CNCC7)C6)c4s3)OCCN12 (stereo partly drawn) [9b-(4-((R)-5-chloro-2-(4,5,6,7-tetrahydroisoxazolo[4,3-c]pyridin-3-yl)-2,3-dihydrobenzofuran-7-yl)thieno[3,2-d]pyrimidin-6-yl)-2,3-dihydrooxazolo[2,3-a]isoindol-5(9bH)-one]",4.52 to 5.00
10,"Cc1c(-c2cc(Cl)cc3c2OC(C(=O)N2CCNCC2)C3)ccnc1N (stereo not shown) [(7-(2-amino-3-methylpyridin-4-yl)-5-chloro-2,3-dihydrobenzofuran-2-yl)(piperazin-1-yl)methanone]",5.00 to 6.00
11,"O=C(C1Cc2cc(Cl)cc(-c3ccnc4[nH]ccc34)c2O1)N1CCC(c2ccccc2O)CC1 (stereo not shown) [(5-chloro-7-(1H-pyrrolo[2,3-b]pyridin-4-yl)-2,3-dihydrobenzofuran-2-yl)(4-(2-hydroxyphenyl)piperidin-1-yl)methanone]",5.00 to 6.00
12,"CCN1CCc2noc([C@H]3Cc4cc(Cl)cc(-c5ncnc6ccoc56)c4O3)c2C1 [(R)-3-(5-chloro-7-(furo[3,2-d]pyrimidin-4-yl)-2,3-dihydrobenzofuran-2-yl)-5-ethyl-4,5,6,7-tetrahydroisoxazolo[4,3-c]pyridine]",5.00 to 6.00
13,"OCc1cc2nccc(-c3cc(Cl)cc4c3OC(c3onc5c3CNCC5)C4)n2n1 (stereo not shown) [(7-(5-chloro-2-(4,5,6,7-tetrahydroisoxazolo[4,3-c]pyridin-3-yl)-2,3-dihydrobenzofuran-7-yl)pyrazolo[1,5-a]pyrimidin-2-yl)methanol]",5.00 to 6.00
14,"CN(C)Cc1ncoc1[C@H]1Cc2cc(Cl)cc(-c3ncnc4ccsc34)c2O1 [(R)-1-(5-(5-chloro-7-(thieno[3,2-d]pyrimidin-4-yl)-2,3-dihydrobenzofuran-2-yl)oxazol-4-yl)-N,N-dimethylmethanamine]",5.00 to 6.00
15,"O=C(C1Cc2cc(Cl)cc(-c3ccnc4c3ccn4Cc3ccccc3)c2O1)N1CCNCC1 (stereo not shown) [(7-(1-Benzyl-1H-pyrrolo[2,3-b]pyridin-4-yl)-5-chloro-2,3-dihydrobenzofuran-2-yl)(piperazin-1-yl)methanone]",4.52 to 5.00
16,"Cc1c[nH]c2nccc(-c3cc(Cl)cc4c3OC(C(=O)N3CCNCC3)C4)c12 (stereo not shown) [(5-chloro-7-(3-methyl-1H-pyrrolo[2,3-b]pyridin-4-yl)-2,3-dihydrobenzofuran-2-yl)(piperazin-1-yl)methanone]",5.00 to 6.00
17,"N#Cc1ccc2nccc(-c3cc(Cl)cc4c3O[C@@H](c3onc5c3CNCC5)C4)c2c1 [(R)-4-(5-chloro-2-(4,5,6,7-tetrahydroisoxazolo[4,3-c]pyridin-3-yl)-2,3-dihydrobenzofuran-7-yl)quinoline-6-carbonitrile]",5.00 to 6.00
18,C[C@H](O)Cc1cc2c(-c3cc(Cl)cc4c3OC(C(=O)N3CCNCC3)C4)ccnc2[nH]1 (stereo partly shown),5.00 to 6.00
19,"CCC(O)c1cc2nccc(-c3cc(Cl)cc4c3OC(CN3CCNCC3)C4)c2s1 (stereo not shown) [1-(7-(5-chloro-2-(piperazin-1-ylmethyl)-2,3-dihydrobenzofuran-7-yl)thieno[3,2-b]pyridin-2-yl)propan-1-ol]",4.52 to 5.00

# Second part, the compound after the results:
row,pIC50,SMILES
1,5.00 to 6.00,"CC(=O)NCc1ccc2c(-c3cc(Cl)cc4c3O[C@@H](c3onc5c3CNCC5)C4)ccnc2c1 [(R)-N-((4-(5-chloro-2-(4,5,6,7-tetrahydroisoxazolo[4,3-c]pyridin-3-yl)-2,3-dihydrobenzofuran-7-yl)quinolin-7-yl)methyl)acetamide]"
2,5.00 to 6.00,"Clc1cc2c(c(-c3ccnc4[nH]ccc34)c1)OC(c1n[nH]c3c1CNCC3)C2 (stereo not shown) [3-(5-chloro-7-(1H-pyrrolo[2,3-b]pyridin-4-yl)-2,3-dihydrobenzofuran-2-yl)-4,5,6,7-tetrahydro-1H-pyrazolo[4,3-c]pyridine]"
3,5.00 to 6.00,"CCC(O)(CC)C1Cc2nccc(-c3cc(Cl)cc4c3O[C@@H](c3onc5c3CNCC5)C4)c2C1 (stereo partly drawn) [3-(4-((R)-5-chloro-2-(4,5,6,7-tetrahydroisoxazolo[4,3-c]pyridin-3-yl)-2,3-dihydrobenzofuran-7-yl)-6,7-dihydro-5H-cyclopenta[b]pyridin-6-yl)pentan-3-ol]"
4,> 6.00,"O=C([C@H]1Cc2cc(Cl)cc(-c3ccnc4cc(CCN5C(=O)c6ccccc6C5=O)sc34)c2O1)N1CCNCC1 [(R)-2-(2-(7-(5-chloro-2-(piperazine-1-carbonyl)-2,3-dihydrobenzofuran-7-yl)thieno[3,2-b]pyridin-2-yl)ethyl)isoindoline-1,3-dione]"
5,> 6.00,"O=C([C@H]1Cc2cc(Cl)cc(-c3ncnc4cc(CN5C(=O)CCC5=O)oc34)c2O1)N1CCNCC1 [(R)-1-((4-(5-chloro-2-(piperazine-1-carbonyl)-2,3-dihydrobenzofuran-7-yl)furo[3,2-d]pyrimidin-6-yl)methyl)pyrrolidine-2,5-dione]"
6,> 6.00,"O=C([C@H]1Cc2cc(Cl)cc(-c3ccnc4cc(CN5C(=O)c6ccccc6C5=O)sc34)c2O1)N1CCNCC1 [(R)-2-((7-(5-chloro-2-(piperazine-1-carbonyl)-2,3-dihydrobenzofuran-7-yl)thieno[3,2-b]pyridin-2-yl)methyl)isoindoline-1,3-dione]"
7,> 6.00,"O=C([C@H]1Cc2cc(Cl)cc(-c3ccnc4cc(CO)sc34)c2O1)N1CCC(N2CCCC2)CC1 [(R)-(5-chloro-7-(2-(hydroxymethyl)thieno[3,2-b]pyridin-7-yl)-2,3-dihydrobenzofuran-2-yl)(4-(pyrrolidin-1-yl)piperidin-1-yl)methanone]"
8,> 6.00,"CCC(O)C1Cc2nccc(-c3cc(Cl)cc4c3O[C@@H](C(=O)N3CCNCC3)C4)c2C1 (stereo partly drawn) [((2R)-5-chloro-7-(6-(1-hydroxypropyl)-6,7-dihydro-5H-cyclopenta[b]pyridin-4-yl)-2,3-dihydrobenzofuran-2-yl)(piperazin-1-yl)methanone]"
9,> 6.00,"CC[C@H](O)c1cc2nccc(-c3cc(Cl)cc4c3O[C@@H](c3onc5c3CNCC5)C4)c2s1 [(S)-1-(7-((R)-5-chloro-2-(4,5,6,7-tetrahydroisoxazolo[4,3-c]pyridin-3-yl)-2,3-dihydrobenzofuran-7-yl)thieno[3,2-b]pyridin-2-yl)propan-1-ol]"
10,> 6.00,"O=C(C1Cc2cc(Cl)cc(-c3ccnc4[nH]ccc34)c2O1)N1CCNCC1 (stereo not shown) [(5-chloro-7-(1H-pyrrolo[2,3-b]pyridin-4-yl)-2,3-dihydrobenzofuran-2-yl)(piperazin-1-yl)methanone]"
11,> 6.00,"O=C([C@H]1Cc2cc(Cl)cc(-c3ccnc4cc(C(O)CCl)sc34)c2O1)N1CCNCC1 (stereo partly drawn) [((2R)-5-chloro-7-(2-(2-chloro-1-hydroxyethyl)thieno[3,2-b]pyridin-7-yl)-2,3-dihydrobenzofuran-2-yl)(piperazin-1-yl)methanone]"
12,> 6.00,"COc1ccc2c(-c3cc(Cl)cc4c3O[C@@H](c3onc5c3CNCC5)C4)ccnc2c1 [(R)-3-(5-chloro-7-(7-methoxyquinolin-4-yl)-2,3-dihydrobenzofuran-2-yl)-4,5,6,7-tetrahydroisoxazolo[4,3-c]pyridine]"
13,> 6.00,"OCC(O)(CCl)c1cc2nccc(-c3cc(Cl)cc4c3O[C@@H](c3onc5c3CNCC5)C4)c2s1 (stereo partly drawn) [3-chloro-2-(7-((R)-5-chloro-2-(4,5,6,7-tetrahydroisoxazolo[4,3-c]pyridin-3-yl)-2,3-dihydrobenzofuran-7-yl)thieno[3,2-b]pyridin-2-yl)propane-1,2-diol]"
14,> 6.00,"Clc1cc2c(c(-c3ccnc4cc(Cl)ccc34)c1)O[C@@H](c1onc3c1CNCC3)C2 [(R)-3-(5-chloro-7-(7-chloroquinolin-4-yl)-2,3-dihydrobenzofuran-2-yl)-4,5,6,7-tetrahydroisoxazolo[4,3-c]pyridine]"
15,> 6.00,"CN1CCc2noc([C@H]3Cc4cc(Cl)cc(-c5ccnc6cc(CO)sc56)c4O3)c2C1 [(R)-(7-(5-chloro-2-(5-methyl-4,5,6,7-tetrahydroisoxazolo[4,3-c]pyridin-3-yl)-2,3-dihydrobenzofuran-7-yl)thieno[3,2-b]pyridin-2-yl)methanol]"
